Laboratory results taken from paper PMC11994961, “In Vivo pharmacokinetic interactions of ribociclib with rivaroxaban and apixaban in rats: implications for increased drug exposure and dose adjustments” (Frontiers in Pharmacology, 2025).
Like-named read-outs stand apart in the source and are kept apart here.

Tests used:
CYP2J2 = tested on: CYP2J2; set-up: method as in Mueck et al., 2013; conditions: ref Mueck et al., 2013; cited from earlier work
[1] = Pharmacokinetic study of rivaroxaban in rats, alone and with ribociclib (UPLC-MS/MS plasma levels); assay type: in vivo, Sprague-Dawley rats; conditions: for CL/F: read-out: CLz/F (converted); for MRT inf: read-out: MRT0- ∞; for MRT last: read-out: MRT0-t; for Vd/F: read-out: Vz/F
Description: Experimental animals were randomly divided into nine groups (n = 6, Table 1). Ribociclib was suspended in methylcellulose (MC), rivaroxaban was prepared in hydroxypropyl methylcellulose (HPMC), and apixaban was suspended in 5% DMSO in water. To achieve steady-state blood concentrations, a drug typically requires five to seven half-lives. Based on this principle, ribociclib was administered orally for eight consecutive days, while rivaroxaban and apixaban were administered orally for five consecutive days to ensure steady-state concentrations were reached before further analysis.
Approximately 0.1 mL of blood was collected into heparinized tubes via the orbitalat specified time points before and after the final drug administration. For apixaban, blood samples were collected at 0, 0.083, 0.167, 0.25, 0.333, 0.5, 0.75, 1, 3, 5, 7, 10, and 12 h. For rivaroxaban, sampling was conducted at 0, 0.167, 0.333, 0.5, 0.75, 1.5, 2, 3, 4, 5, 6, 8, 10, 12, and 24 h. For ribociclib, samples were taken at 0, 0.5, 1, 2, 4, 5, 6, 8, 10, 12, 24, and 48 h. Blood samples were centrifuged at 3,500 rpm for 10 min, and the supernatant was collected and stored at −80°C until processing for UPLC-MS/MS.
Apixaban and rivaroxaban concentrations in plasma samples were determined using our previously established UPLC-MS/MS method ([Wang et al., 2023]). Ribociclib concentrations were quantified using an LC-30A UPLC system (Shimadzu, Kyoto, Japan) coupled with a Sciex Triple Quad 5500 tandem quadrupole mass spectrometer (AB Sciex, Framingham, MA, United States) equipped with an electrospray ionization interface. Chromatographic separation was performed using a Welch Boltimate column (2.1 mm × 100 mm, 2.7 μm) maintained at 40°C. The mobile phase was composed of water containing 0.1% formic acid (phase A) and acetonitrile (phase B). The flow rate was held constant at 0.3 mL/min. The gradient elution protocol was as follows: 0–2.5 min, 60% B; 2.5–3.5 min, 60%–90% B; 3.5–5.5 min, 90% B; 5.5–5.6 min, 90%–60% B; 5.6–6.6 min, 60% B. The injection volume was 1 μL.
Pharmacokinetic parameters were calculated based on a non-compartmental model using DAS 2.1.1 Software (Mathematical Pharmacology Professional Committee of China, Shanghai, China). The area under the concentration–time curve (AUC), maximum plasma concentration (Cmax), time to maximum plasma concentration (Tmax), the time required to eliminate half of the plasma drug concentration (t1/2), clearance of drug plasma volume per unit time (CLz/F), apparent volume distribution (Vz/F), mean residence time (MRT) and the absorption rate constant (Ka) are all expressed as mean ± standard deviation (SD). SPSS 25.0 statistical software (SPSS Inc., Chicago, IL, United States) was applied to statistically analyze the mainpharmacokinetic parameters. Shapiro-Wilk test was used to assess whether the data were normally distributed, t test was used for parameters conforming to the normal distribution, and Mann-Whitney U test was used for parameters not conforming to the normal distribution. Statistical comparisons were conducted using a analysis of variance, t-test or nonparametric rank-sum test depending on the data type. A P-value <0.05 was deemed statistically significant.

[2] = RIVA 1 mg/kg + multiple doses of RIBO vs RIVA 2 mg/kg alone
[3] = RIVA 2 mg/kg (normal dose) + multiple doses of RIBO vs alone
[4] = RIVA 2 mg/kg + timed RIBO (12 h), RIBO 60 mg/kg for 8 days
[5] = RIVA 2 mg/kg after multiple doses of RIBO vs RIVA 2 mg/kg alone
[6] = RIVA 2 mg/kg with 12-h interval to RIBO vs RIVA 2 mg/kg alone
[7] = Sprague-Dawley, rat, plasma, po, 1 mg/kg, RIVA 1 mg/kg + RIBO 60 mg/kg for 8 days
[8] = Sprague-Dawley, rat, plasma, po, 2 mg/kg, RIVA 2 mg/kg + RIBO 60 mg/kg for 8 days
[9] = Sprague-Dawley, rat, plasma, po, 2 mg/kg, RIVA 2 mg/kg + timed RIBO (12 h), RIBO 60 mg/kg for 8 days
[10] = Sprague-Dawley, rat, plasma, po, 2 mg/kg, oral RIVA 2 mg/kg alone

decrease of CLz/F [1, 2]: 70.97%
decrease of Vz/F [1, 2]: 78.29%
difference in MRT0- ∞ [1, 2]: not statistically significant
difference in Tmax [1, 2]: not statistically significant
increase of AUC0- ∞ [1, 2]: 228.46%
increase of AUC0-t [1, 2]: 230.62%
increase of Cmax [1, 2]: 133.14%
increase of MRT0-t [1, 2]: 30.06%
increase of AUC0- ∞ [1, 3]: ~2.1 fold
increase of AUC0-t (AUC) [1, 3]: about 2.4 fold
increase of Cmax [1, 3]: 1.9 fold
Cmax ([1]; RIVA 2 mg/kg + RIBO 60 mg/kg for 8 days): 838.33 ± 480.92 ng/mL
AUC0- ∞ [1, 4]: 2,217.15 ± 800.81 μg/L*h
Cmax [1, 4]: 454.5 ± 214.88 ng/mL
Vz/F [1, 4]: 3.72 ± 1.98 L/kg
t1/2 [1, 4]: 2.65 ± 1.48 h
decrease of CLz/F [1, 5]: 65.81%
decrease of Vz/F [1, 5]: 82.91%
decrease of t1/2z [1, 5]: 57.09%
difference in MRT0- ∞ [1, 5]: not statistically significant
difference in Tmax [1, 5]: not statistically significant
increase of AUC0- ∞ [1, 5]: 213.79%
increase of AUC0-t [1, 5]: 240.19%
increase of Cmax [1, 5]: 186.93%
increase of MRT0-t [1, 5]: 21.39%
decrease of CLz/F [1, 6]: 34.84%
decrease of Vz/F [1, 6]: 62.61%
difference in Cmax [1, 6]: not statistically significant
difference in MRT0- ∞ [1, 6]: not statistically significant
difference in Tmax [1, 6]: not statistically significant
increase of AUC0- ∞ [1, 6]: 63.03%
increase of AUC0-t [1, 6]: 74.16%
increase of MRT0-t [1, 6]: 22.54%
Cmax ([1]; Sprague-Dawley, rat, plasma, oral RIVA 2 mg/kg alone, read-out: Cmax): 292 ± 67.5 ng/mL
AUC(0-inf) [1, 7]: 4470 ng·h/mL
AUC(0-t) [1, 7]: 3990 ± 445 ng·h/mL
Tmax [1, 7]: 1.92 ± 0.2 h
half-life [1, 7]: 3.34 ± 0.79 h
CL/F [1, 7]: 7.5 mL/min/kg
MRT inf [1, 7]: 5.84 ± 0.81 h
MRT last [1, 7]: 4.5 ± 0.25 h
Vd/F [1, 7]: 2.16 ± 0.04 L/kg
AUC(0-inf) [1, 8]: 4270 ng·h/mL
AUC(0-t) [1, 8]: 4100 ng·h/mL
Tmax [1, 8]: 2.83 ± 0.41 h
half-life [1, 8]: 2.15 ± 0.94 h
CL/F [1, 8]: 8.83 mL/min/kg
MRT inf [1, 8]: 4.74 ± 0.63 h
MRT last [1, 8]: 4.2 ± 0.63 h
Vd/F [1, 8]: 1.7 ± 0.99 L/kg
AUC(0-t) [1, 9]: 2100 ng·h/mL
Tmax [1, 9]: 3 ± 0.63 h
CL/F [1, 9]: 16.8 mL/min/kg
MRT inf [1, 9]: 4.93 ± 1.3 h
MRT last [1, 9]: 4.24 ± 0.69 h
AUC(0-inf) [1, 10]: 1360 ng·h/mL
AUC(0-t) [1, 10]: 1210 ng·h/mL
Tmax [1, 10]: 2.13 ± 0.83 h
half-life [1, 10]: 5.01 ± 3.3 h
CL/F [1, 10]: 25.8 mL/min/kg
MRT last [1, 10]: 3.46 ± 0.43 h
Vd/F [1, 10]: 9.95 ± 4.58 L/kg
Cmax ([1]; Sprague-Dawley, rat, plasma, po, RIVA 1 mg/kg + RIBO 60 mg/kg for 8 days, read-out: Cmax): 681 ± 75.5 ng/mL
AUC at 1 mg/kg versus AUC at 2 mg/kg ([1]; both with multiple doses of RIBO): not significantly different
MRT0- ∞ ([1]; oral RIVA 2 mg/kg alone): 5.31 ± 2.01 h
increase of Cmax ([1]; reduced RIVA 1 mg/kg + multiple doses of RIBO): 1.3 fold
Structure (SMILES): O=C(NC[C@H]1CN(c2ccc(N3CCOCC3=O)cc2)C(=O)O1)c1ccc(Cl)s1 [RIVA, rivaroxaban]
share of total elimination by CYP2J2 (CYP2J2): approximately 14%
